Source: ChEMBL document CHEMBL4400520, “Benzofuran-isatin-imine hybrids tethered via different length alkyl linkers: Design, synthesis and in vitro evaluation of anti-tubercular and anti-bacterial activities as well as cytotoxicity” (Eur J Med Chem, 2019)
≈ marks a conversion by molar mass, not a printed value.

Assays:
[1] = tested on: Klebsiella pneumoniae; experiment: Antibacterial activity against Klebsiella pneumoniae; assay type: functional
[2] = tested on: Staphylococcus epidermidis; experiment: Antibacterial activity against methicillin-resistant Staphylococcus epidermidis; assay type: functional
[3] = tested on: Escherichia coli; experiment: Antibacterial activity against Escherichia coli; assay type: functional
[4] = tested on: Staphylococcus aureus; experiment: Antibacterial activity against methicillin-resistant Staphylococcus aureus; assay type: functional
[5] = tested on: Citrobacter freundii; experiment: Antibacterial activity against Citrobacter freundii; assay type: functional
[6] = Cytotoxicity against African green monkey Vero cells assessed as reduction in cell viability after 72 hrs by MTT assay; assay type: cell-based; conditions: chlorocebus sabaeus, Vero cells
[7] = tested on: Staphylococcus epidermidis; experiment: Antibacterial activity against methicillin-sensitive Staphylococcus epidermidis; assay type: functional
[8] = tested on: Enterococcus faecium; experiment: Antibacterial activity against Enterococcus faecium; assay type: functional
[9] = tested on: Pseudomonas aeruginosa; experiment: Antibacterial activity against Pseudomonas aeruginosa ATCC 27853; assay type: functional
[10] = tested on: Enterobacter cloacae; experiment: Antibacterial activity against Enterobacter cloacae; assay type: functional
[11] = tested on: Klebsiella aerogenes; experiment: Antibacterial activity against Enterobacter aerogenes; assay type: functional
[12] = tested on: Mycobacterium tuberculosis; experiment: Antitubercular activity against Mycobacterium tuberculosis H37Rv; assay type: functional
[13] = tested on: Proteus mirabilis; experiment: Antibacterial activity against Proteus mirabilis; assay type: functional
[14] = tested on: Staphylococcus aureus; experiment: Antibacterial activity against methicillin-sensitive Staphylococcus aureus; assay type: functional
[15] = Selectivity index, ratio of CC50 for African green monkey Vero cells to MIC for Mycobacterium tuberculosis H37Rv; assay type: toxicity; conditions: read-out: Selectivity Index
[16] = tested on: Enterococcus faecalis; experiment: Antibacterial activity against Enterococcus faecalis; assay type: functional
[17] = tested on: Acinetobacter calcoaceticus; experiment: Antibacterial activity against Acinetobacter calcoaceticus; assay type: functional

| SMILES | MIC90 [1] | MIC90 [2] | MIC90 [3] | MIC90 [4] | MIC90 [5] | CC50 at 72 h [6] | MIC90 [7] | MIC90 [8] | MIC90 [9] | MIC90 [10] | MIC90 [11] | MIC [12] | MIC90 [13] | MIC90 [14] | selectivity ratio [15] | MIC90 [16] | MIC90 [17] |
| --- | --- | --- | --- | --- | --- | --- | --- | --- | --- | --- | --- | --- | --- | --- | --- | --- | --- |
| CCOC(=O)c1c(-c2ccc(OC)cc2)oc2ccc(OCCCCCCN3C(=O)/C(=N\NC(N)=S)c4cc(F)ccc43)cc12 | 1 µg/mL (≈ 1.58 µM) | 2 µg/mL (≈ 3.16 µM) | 0.125 µg/mL (≈ 0.198 µM) | 1 µg/mL (≈ 1.58 µM) | 0.25 µg/mL (≈ 0.395 µM) | 8 µg/mL (≈ 12.6 µM) | 0.5 µg/mL (≈ 0.79 µM) | 32 µg/mL (≈ 50.6 µM) | 4 µg/mL (≈ 6.32 µM) | 0.5 µg/mL (≈ 0.79 µM) | 2 µg/mL (≈ 3.16 µM) | < 0.016 µg/mL | 1 µg/mL (≈ 1.58 µM) | 1 µg/mL (≈ 1.58 µM) | > 500 | 1 µg/mL (≈ 1.58 µM) | 16 µg/mL (≈ 25.3 µM) |
| CCOC(=O)c1c(-c2ccc(OC)cc2)oc2ccc(OCCCCCCN3C(=O)/C(=N\OC)c4cc(F)ccc43)cc12 | 2 µg/mL (≈ 3.4 µM) | 16 µg/mL (≈ 27.2 µM) | 0.25 µg/mL (≈ 0.425 µM) | 4 µg/mL (≈ 6.8 µM) | 0.5 µg/mL (≈ 0.849 µM) | 16 µg/mL (≈ 27.2 µM) | 0.5 µg/mL (≈ 0.849 µM) | 16 µg/mL (≈ 27.2 µM) | 8 µg/mL (≈ 13.6 µM) | 0.5 µg/mL (≈ 0.849 µM) | 0.5 µg/mL (≈ 0.849 µM) | < 0.016 µg/mL | 0.125 µg/mL (≈ 0.212 µM) | 4 µg/mL (≈ 6.8 µM) | > 1000 | 2 µg/mL (≈ 3.4 µM) | 4 µg/mL (≈ 6.8 µM) |
| CCOC(=O)c1c(-c2ccc(OC)cc2)oc2ccc(OCCCCCCN3C(=O)/C(=N\OC)c4ccccc43)cc12 | 4 µg/mL (≈ 7.01 µM) | 8 µg/mL (≈ 14 µM) | 0.125 µg/mL (≈ 0.219 µM) | 2 µg/mL (≈ 3.5 µM) | 0.125 µg/mL (≈ 0.219 µM) | 32 µg/mL (≈ 56.1 µM) | 0.5 µg/mL (≈ 0.876 µM) | 16 µg/mL (≈ 28 µM) | 2 µg/mL (≈ 3.5 µM) | 0.125 µg/mL (≈ 0.219 µM) | 0.25 µg/mL (≈ 0.438 µM) | < 0.016 µg/mL | 0.125 µg/mL (≈ 0.219 µM) | 2 µg/mL (≈ 3.5 µM) | > 2000 | 4 µg/mL (≈ 7.01 µM) | 4 µg/mL (≈ 7.01 µM) |
| CCO/N=C1\C(=O)N(CCCCOc2ccc3oc(-c4ccc(OC)cc4)c(C(=O)OCC)c3c2)c2ccccc21 | 2 µg/mL (≈ 3.59 µM) | 2 µg/mL (≈ 3.59 µM) | 1 µg/mL (≈ 1.8 µM) | 1 µg/mL (≈ 1.8 µM) | 2 µg/mL (≈ 3.59 µM) | 64 µg/mL (≈ 115 µM) | 0.5 µg/mL (≈ 0.898 µM) | 64 µg/mL (≈ 115 µM) | 2 µg/mL (≈ 3.59 µM) | 1 µg/mL (≈ 1.8 µM) | 2 µg/mL (≈ 3.59 µM) | < 0.016 µg/mL | 2 µg/mL (≈ 3.59 µM) | 1 µg/mL (≈ 1.8 µM) | > 4000 | 4 µg/mL (≈ 7.19 µM) | 0.5 µg/mL (≈ 0.898 µM) |
| CCO/N=C1\C(=O)N(CCCCCOc2ccc3oc(-c4ccc(OC)cc4)c(C(=O)OCC)c3c2)c2ccc(F)cc21 | 4 µg/mL (≈ 6.8 µM) | 4 µg/mL (≈ 6.8 µM) | 0.125 µg/mL (≈ 0.212 µM) | 4 µg/mL (≈ 6.8 µM) | 0.125 µg/mL (≈ 0.212 µM) | 32 µg/mL (≈ 54.4 µM) | 1 µg/mL (≈ 1.7 µM) | 32 µg/mL (≈ 54.4 µM) | 4 µg/mL (≈ 6.8 µM) | 0.25 µg/mL (≈ 0.425 µM) | 0.5 µg/mL (≈ 0.849 µM) | 0.031 µg/mL (≈ 0.0527 µM) | 0.25 µg/mL (≈ 0.425 µM) | 8 µg/mL (≈ 13.6 µM) | 1030 | 4 µg/mL (≈ 6.8 µM) | 8 µg/mL (≈ 13.6 µM) |
| CCOC(=O)c1c(-c2ccc(OC)cc2)oc2ccc(OCCCCCN3C(=O)/C(=N\O)c4ccccc43)cc12 | 1 µg/mL (≈ 1.84 µM) | 4 µg/mL (≈ 7.37 µM) | 0.25 µg/mL (≈ 0.461 µM) | 2 µg/mL (≈ 3.69 µM) | 0.5 µg/mL (≈ 0.922 µM) | 64 µg/mL (≈ 118 µM) | 0.25 µg/mL (≈ 0.461 µM) | 8 µg/mL (≈ 14.7 µM) | 4 µg/mL (≈ 7.37 µM) | 1 µg/mL (≈ 1.84 µM) | 0.5 µg/mL (≈ 0.922 µM) | 0.062 µg/mL (≈ 0.114 µM) | 0.25 µg/mL (≈ 0.461 µM) | 2 µg/mL (≈ 3.69 µM) | 1030 | 2 µg/mL (≈ 3.69 µM) | 2 µg/mL (≈ 3.69 µM) |
| CCOC(=O)c1c(-c2ccc(F)cc2)oc2ccc(OCCCCCCN3C(=O)/C(=N\OC)c4cc(F)ccc43)cc12 | 2 µg/mL (≈ 3.47 µM) | 8 µg/mL (≈ 13.9 µM) | 0.5 µg/mL (≈ 0.867 µM) | 1 µg/mL (≈ 1.73 µM) | 0.125 µg/mL (≈ 0.217 µM) | 16 µg/mL (≈ 27.7 µM) | 0.25 µg/mL (≈ 0.434 µM) | 8 µg/mL (≈ 13.9 µM) | 2 µg/mL (≈ 3.47 µM) | 0.25 µg/mL (≈ 0.434 µM) | 0.25 µg/mL (≈ 0.434 µM) | 0.218 µg/mL (≈ 0.378 µM) | 0.125 µg/mL (≈ 0.217 µM) | 2 µg/mL (≈ 3.47 µM) | 73 | 1 µg/mL (≈ 1.73 µM) | 4 µg/mL (≈ 6.94 µM) |
| NNC(=O)c1ccncc1 [ISONIAZID] |  |  |  |  |  | 256 µg/mL (≈ 1870 µM) |  |  |  |  |  | 0.078 µg/mL (≈ 0.569 µM) |  |  | 3280 |  |  |
| CO[C@H]1/C=C/O[C@@]2(C)Oc3c(C)c(O)c4c(O)c(c(/C=N/N5CCN(C)CC5)c(O)c4c3C2=O)NC(=O)/C(C)=C\C=C\[C@H](C)[C@H](O)[C@@H](C)[C@@H](O)[C@@H](C)[C@H](OC(C)=O)[C@@H]1C [RIFAMPIN] |  |  |  |  |  |  |  |  |  |  |  | 0.078 µg/mL (≈ 0.0948 µM) |  |  | 6560 |  |  |
| CN[C@H](CC(C)C)C(=O)N[C@H]1C(=O)N[C@@H](CC(N)=O)C(=O)N[C@H]2C(=O)N[C@H]3C(=O)N[C@H](C(=O)N[C@H](C(=O)O)c4cc(O)cc(O)c4-c4cc3ccc4O)[C@H](O)c3ccc(c(Cl)c3)Oc3cc2cc(c3O[C@@H]2O[C@H](CO)[C@@H](O)[C@H](O)[C@H]2O[C@H]2C[C@](C)(N)[C@H](O)[C@H](C)O2)Oc2ccc(cc2Cl)[C@H]1O [VANCOMYCIN] |  | 1 µg/mL (≈ 0.69 µM) |  | 1 µg/mL (≈ 0.69 µM) |  |  | 1 µg/mL (≈ 0.69 µM) | 1 µg/mL (≈ 0.69 µM) |  |  |  |  |  | 0.5 µg/mL (≈ 0.345 µM) |  | 4 µg/mL (≈ 2.76 µM) |  |
